# Data: patent US20240197652A1, “KETAMINE IN THE TREATMENT OF […]” (Awakn LS Europe Holdings Limited, priority 2021, published 2024)
# How the values were obtained:
# Type in all cases: in vivo, human
# subjects with CSBD = experiment: Adverse events, KSET, Example 10; settings: three CSBD subjects; 100 mg racemic ketamine sublingual
# [1] = test system: subjects with gaming disorder; experiment: Adverse events, KSET, Example 9; settings: three gaming disorder subjects; 100 mg racemic ketamine sublingual
# [2] = Plasma ketamine, HNK and norketamine levels, CSBD subjects (Example 10); settings: analyte = label; for peak plasma concentration: 100 mg racemic ketamine sublingual; for time of peak plasma concentration: post-administration of 100 mg racemic ketamine sublingual
# Protocol: A study was completed on the use of ketamine to treat CSBD. Subjects were assessed for CSBD using the Problematic Pornography Use Scale (PPUS) and were included if they received an PPUS score greater than 3. Three subjects in total were included (CSB1-CSB3). All three were administered sublingual lozenges comprising 100 mg of racemic ketamine.
# Blood samples were collected from all three subjects. Blood samples were analysed to determine ketamine and ketamine metabolite levels. Assessments were conducted as below.
# The treatment protocol commenced in the same way as disclosed in the ketamine in subjects with gambling disorder study completed in EXAMPLE 7, with the exceptions outlined as follows: No behavioural tasks were completed. Self-report measures completed during EXAMPLE 10 included the Emotional Intimacy Measure, the Childhood Trauma Questionnaire, the Generalised Anxiety Disorder-7 (GAD-7), the Morningness-Eveningness Questionnaire (MEQ), and the Problematic Pornography Questionnaire (PPQ), the Acceptance and Action Questionnaire, and the Psychological and Interpersonal Relationship Scales (PAIRS).
# [3] = test system: subjects with gambling disorder; experiment: Problem Gambling Severity Index (PGSI), Example 7; settings: for PGSI score at 2-week follow up / PGSI classification at two-week follow up: after 100 mg racemic ketamine sublingual; for PGSI score, pre-administration / PGSI classification, pre-administration: baseline before 100 mg racemic ketamine sublingual; for % change in PGSI score: pre-administration to 2-week follow up, 100 mg racemic ketamine sublingual
# Protocol: A study was completed on the use of ketamine to treat gambling disorder. Subjects were assessed for gambling disorder using the PGSI. Subjects were included if they received a PGSI score greater than 3. Five subjects in total were included (G1-G5). All five subjects were administered ketamine. Blood samples were collected from all five subjects. Blood samples were analysed to determine ketamine and ketamine metabolite levels, and each subject was assessed post-administration to determine the effectiveness of the treatment.
# (§1) The study spanned a total of 30 days (not counting initial contact and prescreening). Prescreening of all subjects was conducted by phone, and subjects recorded self-report measures, including the Sensitivity to Punishment and Sensitivity to Reward Questionnaire (SPSRQ) and the Gambling Related Cognitions Questionnaire. Prior to beginning treatment, each subject completed the Beck Depression Inventory (BDI) to determine a baseline depression score. Total scores of 0-13 are minimal, 14-19 are mild, 20-28 are moderate, and 29-63 are severe (Beck, Steer, and Brown, 1996).
# On Day 3, each subject returned on-site and was administered ketamine. 100 mg of racemic ketamine was administered in as sublingual lozenges.
# The remaining follow-up sessions were completed online. Follow-up 1 was completed on Day 4, Follow-up 2 on Day 14, and Follow-up 3 on Day 30. At each follow-up session, the same self-report measures and behavioural tasks were completed.
# The PGSI classifies potential problem gamblers in four categories based on scores. A score of 0 is a non-problem gambler, a score of between 1 and 2 is a low-risk gamber (mild), a score of 3-7 is a moderate-risk gambler (moderate), and a score of 8 or above is a problem gambler (severe). Subject G4 was classified as a moderate-risk (moderate) gambler pre-administration, and at the two-week follow up was classified as a low-risk (mild) gambler. Subject G5 was classified as a problem (severe) gambler pre-administration, and at the two-week follow up was classified as a low-risk (mild) gambler
# [4] = test system: subjects of EXAMPLES 7-10; experiment: Beck Depression Inventory (BDI), subjects of Examples 7-10; settings: for BDI Score at the one-week follow up / Depression Severity at the One Week Follow Up (BDI): after 100 mg racemic ketamine sublingual; for BDI Score pre-treatment / Depression Severity Pre-Treatment (BDI): baseline before 100 mg racemic ketamine sublingual; for % Change in BDI score: pre-treatment to one-week follow up, 100 mg racemic ketamine sublingual
# Protocol: as §1
# [5] = test system: subjects with gambling disorder; experiment: Adverse events, Ketamine Side Effect Tool (KSET), Example 7; settings: five gambling disorder subjects; 100 mg racemic ketamine sublingual
# Protocol: Adverse events were assessed with the Ketamine Side Effect Tool (KSET).
# [6] = subject BE1 (binge eating disorder)
# [7] = subject BE2 (binge eating disorder)
# [8] = subject BE3 (binge eating disorder)
smiles,measurement,setting,value
"CNC1(c2ccccc2Cl)CCCCC1=O (racemic) [ketamine, 2-(2-chlorophenyl)-2-(methylamino)-cyclohexanone]",course of adverse events,subjects with CSBD,"All adverse events were transient, and resolved two hours post-lozenge"
same,overall tolerability,subjects with CSBD,"well-tolerated, with no drop-outs"
same,unexpected adverse reactions (KSET),subjects with CSBD,No unexpected adverse reactions were observed
same,course of adverse events,[1],"All adverse events were transient, and resolved two hours post-lozenge"
same,overall tolerability,[1],"well-tolerated, with no drop-outs"
same,unexpected adverse reactions (KSET),[1],No unexpected adverse reactions were observed
same,peak plasma concentration,[2]; subject CSB1,about 368 ng/ml
same,time of peak plasma concentration,[2]; subject CSB1,70 min
same,peak plasma concentration,[2]; subject CSB2,about 285 ng/ml
same,time of peak plasma concentration,[2]; subject CSB2,30 min
same,peak plasma concentration,[2]; subject CSB3,about 395 ng/mL
same,time of peak plasma concentration,[2]; subject CSB3,50 min
same,PGSI score at 2-week follow up,[3]; subject G1,5
same,"PGSI score, pre-administration",[3]; subject G1,4
same,% change in PGSI score,[3]; subject G1,+25%
same,PGSI score at 2-week follow up,[3]; subject G2,11
same,"PGSI score, pre-administration",[3]; subject G2,16
same,% change in PGSI score,[3]; subject G2,−31.25%
same,PGSI score at 2-week follow up,[3]; subject G3,18
same,"PGSI score, pre-administration",[3]; subject G3,21
same,% change in PGSI score,[3]; subject G3,−14.29%
same,PGSI classification at two-week follow up,[3]; subject G4,low-risk (mild) gambler (a score of between 1 and 2 is a low-risk gamber (mild))
same,PGSI score at 2-week follow up,[3]; subject G4,1
same,"PGSI classification, pre-administration",[3]; subject G4,moderate-risk (moderate) gambler (a score of 3-7 is a moderate-risk gambler (moderate))
same,"PGSI score, pre-administration",[3]; subject G4,3
same,% change in PGSI score,[3]; subject G4,−66.67%
same,PGSI classification at two-week follow up,[3]; subject G5,low-risk (mild) gambler (a score of between 1 and 2 is a low-risk gamber (mild))
same,PGSI score at 2-week follow up,[3]; subject G5,2
same,"PGSI classification, pre-administration",[3]; subject G5,problem (severe) gambler (a score of 8 or above is a problem gambler (severe))
same,"PGSI score, pre-administration",[3]; subject G5,11
same,% change in PGSI score,[3]; subject G5,−81.82%
same,BDI Score at the one-week follow up,[4]; [6],2
same,BDI Score pre-treatment,[4]; [6],9
same,% Change in BDI score,[4]; [6],−77.78%
same,BDI Score at the one-week follow up,[4]; [7],15
same,BDI Score pre-treatment,[4]; [7],19
same,% Change in BDI score,[4]; [7],−21.05%
same,BDI Score at the one-week follow up,[4]; [8],1
same,BDI Score pre-treatment,[4]; [8],21
same,% Change in BDI score,[4]; [8],−95.24%
same,Depression Severity at the One Week Follow Up (BDI),[4]; subject BE3,Minimal (Total scores of 0-13 are minimal)
same,Depression Severity Pre-Treatment (BDI),[4]; subject BE3,Moderate (20-28 are moderate)
same,BDI Score at the one-week follow up,[4]; subject CSB1 (CSBD),9
same,BDI Score pre-treatment,[4]; subject CSB1 (CSBD),24
same,% Change in BDI score,[4]; subject CSB1 (CSBD),−62.50%
same,Depression Severity at the One Week Follow Up (BDI),[4]; subject CSB1,Minimal (Total scores of 0-13 are minimal)
same,Depression Severity Pre-Treatment (BDI),[4]; subject CSB1,Moderate (20-28 are moderate)
same,BDI Score at the one-week follow up,[4]; subject CSB2 (CSBD),12
same,BDI Score pre-treatment,[4]; subject CSB2 (CSBD),14
same,% Change in BDI score,[4]; subject CSB2 (CSBD),−14.29%
same,Depression Severity at the One Week Follow Up (BDI),[4]; subject CSB2,Minimal (Total scores of 0-13 are minimal)
same,Depression Severity Pre-Treatment (BDI),[4]; subject CSB2,Mild (14-19 are mild)
same,BDI Score at the one-week follow up,[4]; subject CSB3 (CSBD),7
same,BDI Score pre-treatment,[4]; subject CSB3 (CSBD),19
same,% Change in BDI score,[4]; subject CSB3 (CSBD),−63.16%
same,Depression Severity at the One Week Follow Up (BDI),[4]; subject CSB3,Minimal (Total scores of 0-13 are minimal)
same,Depression Severity Pre-Treatment (BDI),[4]; subject CSB3,Mild (14-19 are mild)
same,BDI Score at the one-week follow up,[4]; subject G1 (gambling disorder),9
same,BDI Score pre-treatment,[4]; subject G1 (gambling disorder),8
same,% Change in BDI score,[4]; subject G1 (gambling disorder),+12.5%
same,BDI Score at the one-week follow up,[4]; subject G2 (gambling disorder),24
same,BDI Score pre-treatment,[4]; subject G2 (gambling disorder),21
same,% Change in BDI score,[4]; subject G2 (gambling disorder),+14.29%
same,BDI Score at the one-week follow up,[4]; subject G3 (gambling disorder),14
same,BDI Score pre-treatment,[4]; subject G3 (gambling disorder),17
same,% Change in BDI score,[4]; subject G3 (gambling disorder),−17.65%
same,BDI Score at the one-week follow up,[4]; subject G4 (gambling disorder),6
same,BDI Score pre-treatment,[4]; subject G4 (gambling disorder),8
same,% Change in BDI score,[4]; subject G4 (gambling disorder),−25%
same,BDI Score at the one-week follow up,[4]; subject G5 (gambling disorder),11
same,BDI Score pre-treatment,[4]; subject G5 (gambling disorder),12
same,% Change in BDI score,[4]; subject G5 (gambling disorder),−8.33%
same,BDI Score at the one-week follow up,[4]; subject IG1 (gaming disorder),10
same,BDI Score pre-treatment,[4]; subject IG1 (gaming disorder),15
same,% Change in BDI score,[4]; subject IG1 (gaming disorder),−33.33%
same,Depression Severity at the One Week Follow Up (BDI),[4]; subject IG1,Minimal (Total scores of 0-13 are minimal)
same,Depression Severity Pre-Treatment (BDI),[4]; subject IG1,Mild (14-19 are mild)
same,BDI Score at the one-week follow up,[4]; subject IG2 (gaming disorder),8
same,BDI Score pre-treatment,[4]; subject IG2 (gaming disorder),4
same,% Change in BDI score,[4]; subject IG2 (gaming disorder),+100%
same,BDI Score at the one-week follow up,[4]; subject IG3 (gaming disorder),9
same,BDI Score pre-treatment,[4]; subject IG3 (gaming disorder),10
same,% Change in BDI score,[4]; subject IG3 (gaming disorder),−10%
same,course of adverse events,[5],"All adverse events were transient, and resolved two hours post-lozenge"
same,overall tolerability,[5],"well-tolerated, with no drop-outs"
same,unexpected adverse reactions (KSET),[5],No unexpected adverse reactions were observed
